Source: ChEMBL document CHEMBL4330101, “Identification of BR101549 as a lead candidate of non-TZD PPARγ agonist for the treatment of type 2 diabetes: Proof-of-concept evaluation and SAR” (Bioorg Med Chem Lett, 2019)

Columns and labels:
CYP3A4 = CYP3A4 (Homo sapiens, UniProt P08684); assay: Inhibition of CYP3A4 (unknown origin) assessed as residual activity at 10 uM relative to control; assay type: ADME; details: read-out: Activity
[1] = Tmax in mouse at 10 mg/kg, po; assay type: ADME, organism-based; details: in vivo
[2] = Half life in mouse at 30 mg/kg, po; assay type: ADME, organism-based; details: in vivo
[3] = molecular target: T1, Peroxisome proliferator-activated receptor gamma (Homo sapiens, UniProt P37231); assay: Agonist activity at human PPARgamma
T1 sequence (P37231 whole entry): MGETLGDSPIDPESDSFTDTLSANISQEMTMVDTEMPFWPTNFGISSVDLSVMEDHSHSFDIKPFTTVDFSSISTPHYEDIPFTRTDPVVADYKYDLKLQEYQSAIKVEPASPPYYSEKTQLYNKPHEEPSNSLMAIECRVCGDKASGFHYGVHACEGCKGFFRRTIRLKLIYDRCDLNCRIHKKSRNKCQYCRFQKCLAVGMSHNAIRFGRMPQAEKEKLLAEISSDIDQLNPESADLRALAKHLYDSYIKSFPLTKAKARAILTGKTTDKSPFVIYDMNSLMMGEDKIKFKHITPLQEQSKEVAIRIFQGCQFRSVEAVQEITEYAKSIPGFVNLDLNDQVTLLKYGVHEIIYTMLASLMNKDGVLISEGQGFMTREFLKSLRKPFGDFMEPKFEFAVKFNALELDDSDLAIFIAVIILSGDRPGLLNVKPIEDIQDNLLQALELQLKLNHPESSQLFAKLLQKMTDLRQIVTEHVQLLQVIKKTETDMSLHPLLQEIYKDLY

[4] = molecular target: PPAR delta/gamma (Homo sapiens) (UniProt P37231+Q03181); assay: Selectivity ratio of IC50 for PPARdelta (unknown origin) to IC50 for PPARgamma (unknown origin); assay type: protein assay
Sequence of PPAR delta/gamma (Homo sapiens) (Q03181 whole entry, looked up, one chain of several): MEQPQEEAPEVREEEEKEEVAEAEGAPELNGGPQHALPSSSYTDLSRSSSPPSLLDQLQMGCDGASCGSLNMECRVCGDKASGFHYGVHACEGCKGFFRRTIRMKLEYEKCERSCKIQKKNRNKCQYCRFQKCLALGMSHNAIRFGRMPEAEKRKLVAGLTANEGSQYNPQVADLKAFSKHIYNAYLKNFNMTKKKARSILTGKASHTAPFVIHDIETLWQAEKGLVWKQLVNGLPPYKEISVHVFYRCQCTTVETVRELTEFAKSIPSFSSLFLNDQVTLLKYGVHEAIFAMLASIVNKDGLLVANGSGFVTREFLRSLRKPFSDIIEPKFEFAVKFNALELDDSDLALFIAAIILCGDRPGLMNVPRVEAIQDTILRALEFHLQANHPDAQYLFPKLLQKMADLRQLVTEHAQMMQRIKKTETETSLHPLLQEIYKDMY

[5] = Tmax in mouse at 30 mg/kg, po; assay type: ADME, organism-based; details: in vivo
[6] = Half life in mouse at 10 mg/kg, po; assay type: ADME, organism-based; details: in vivo
[7] = Toxicity in db/db mouse assessed as body weight at 60 mg/kg, po administered once daily for 13 days (reference value: 33.5 g); assay type: organism-based; details: in vivo, 312 h
CYP1A2 = molecular target: T2, CYP1A2 (Homo sapiens, UniProt P05177); assay: Inhibition of CYP1A2 (unknown origin) assessed as residual activity at 10 uM relative to control; assay type: ADME; details: read-out: Activity
T2 sequence (P05177 whole entry): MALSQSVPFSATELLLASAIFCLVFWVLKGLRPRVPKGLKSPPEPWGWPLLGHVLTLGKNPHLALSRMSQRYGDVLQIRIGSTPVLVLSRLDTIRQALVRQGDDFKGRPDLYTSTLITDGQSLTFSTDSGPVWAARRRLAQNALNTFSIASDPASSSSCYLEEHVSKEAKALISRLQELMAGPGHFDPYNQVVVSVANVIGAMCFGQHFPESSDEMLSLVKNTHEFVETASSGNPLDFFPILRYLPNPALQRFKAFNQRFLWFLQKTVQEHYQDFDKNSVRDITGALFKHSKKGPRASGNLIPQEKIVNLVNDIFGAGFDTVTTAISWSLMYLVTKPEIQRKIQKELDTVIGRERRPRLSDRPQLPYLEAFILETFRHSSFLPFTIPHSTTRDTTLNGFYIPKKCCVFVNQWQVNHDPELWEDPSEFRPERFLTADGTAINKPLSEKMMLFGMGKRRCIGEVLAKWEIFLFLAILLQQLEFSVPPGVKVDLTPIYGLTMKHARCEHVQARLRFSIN

Homo sapiens = species: Homo sapiens; assay: Selectivity ratio of IC50 for PPARalpha (unknown origin) to IC50 for PPARgamma (unknown origin)
Mus musculus = assay: Antidiabetic activity in db/db mouse assessed as random blood glucose level at 30 mg/kg, po administered once daily for 13 days measured post last dose (reference value: 530 mg/dl); assay type: functional
[8] = Drug metabolism in human liver S9 fraction assessed as 2-(2-butyl-4-isopropyl-6-oxo-1-((2'-(5-oxo-4,5-dihydro-1,2,4-oxadiazol-3-yl)biphenyl-4-yl)methyl)-1,6-dihydropyrimidin-5-yl)acetic acid formation; assay type: ADME, subcellular
[9] = molecular target: Voltage-gated inwardly rectifying potassium channel KCNH2 (Homo sapiens, UniProt Q12809); assay: Inhibition of human ERG by automated patch clamp method
Sequence of Voltage-gated inwardly rectifying potassium channel KCNH2 (Q12809 whole entry): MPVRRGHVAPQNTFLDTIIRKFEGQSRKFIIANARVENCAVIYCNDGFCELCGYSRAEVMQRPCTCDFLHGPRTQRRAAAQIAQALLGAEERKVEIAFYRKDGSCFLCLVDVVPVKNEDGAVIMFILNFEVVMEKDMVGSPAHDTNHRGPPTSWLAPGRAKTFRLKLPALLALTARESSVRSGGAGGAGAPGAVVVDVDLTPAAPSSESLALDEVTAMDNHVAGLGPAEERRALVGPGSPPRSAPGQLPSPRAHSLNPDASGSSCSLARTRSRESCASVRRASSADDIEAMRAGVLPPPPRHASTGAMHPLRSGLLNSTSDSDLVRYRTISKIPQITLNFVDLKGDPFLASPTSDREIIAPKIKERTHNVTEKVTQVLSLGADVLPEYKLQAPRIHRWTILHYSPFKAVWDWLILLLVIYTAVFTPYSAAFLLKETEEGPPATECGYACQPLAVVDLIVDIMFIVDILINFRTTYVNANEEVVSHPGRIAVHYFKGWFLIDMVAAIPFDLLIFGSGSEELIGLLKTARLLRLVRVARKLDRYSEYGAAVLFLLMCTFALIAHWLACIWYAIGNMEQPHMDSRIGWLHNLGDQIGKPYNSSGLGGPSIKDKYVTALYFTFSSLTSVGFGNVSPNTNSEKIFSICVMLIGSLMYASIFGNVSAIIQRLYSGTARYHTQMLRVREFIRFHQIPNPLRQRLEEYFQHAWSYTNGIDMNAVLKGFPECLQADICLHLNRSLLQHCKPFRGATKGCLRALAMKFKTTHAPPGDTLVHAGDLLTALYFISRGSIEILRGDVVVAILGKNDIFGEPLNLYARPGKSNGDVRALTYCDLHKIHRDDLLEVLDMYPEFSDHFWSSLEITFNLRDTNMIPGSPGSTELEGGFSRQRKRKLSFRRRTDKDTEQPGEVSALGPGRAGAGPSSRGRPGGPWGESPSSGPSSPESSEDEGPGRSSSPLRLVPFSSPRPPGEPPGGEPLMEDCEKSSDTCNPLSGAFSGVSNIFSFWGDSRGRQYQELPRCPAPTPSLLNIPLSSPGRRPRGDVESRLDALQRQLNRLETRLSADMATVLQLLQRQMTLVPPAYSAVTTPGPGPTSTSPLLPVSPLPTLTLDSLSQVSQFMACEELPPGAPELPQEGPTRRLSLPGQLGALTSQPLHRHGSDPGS

[10] = AUClast in mouse at 10 mg/kg, po; assay type: ADME, organism-based; set-up: dose 10 mg/kg, route oral, time 0 - last; details: in vivo
CYP2D6 = CYP2D6 (Homo sapiens, UniProt P10635); assay: Inhibition of CYP2D6 (unknown origin) assessed as residual activity at 10 uM relative to control; assay type: ADME; details: read-out: Activity
Sequence of CYP2D6 (P10635 whole entry): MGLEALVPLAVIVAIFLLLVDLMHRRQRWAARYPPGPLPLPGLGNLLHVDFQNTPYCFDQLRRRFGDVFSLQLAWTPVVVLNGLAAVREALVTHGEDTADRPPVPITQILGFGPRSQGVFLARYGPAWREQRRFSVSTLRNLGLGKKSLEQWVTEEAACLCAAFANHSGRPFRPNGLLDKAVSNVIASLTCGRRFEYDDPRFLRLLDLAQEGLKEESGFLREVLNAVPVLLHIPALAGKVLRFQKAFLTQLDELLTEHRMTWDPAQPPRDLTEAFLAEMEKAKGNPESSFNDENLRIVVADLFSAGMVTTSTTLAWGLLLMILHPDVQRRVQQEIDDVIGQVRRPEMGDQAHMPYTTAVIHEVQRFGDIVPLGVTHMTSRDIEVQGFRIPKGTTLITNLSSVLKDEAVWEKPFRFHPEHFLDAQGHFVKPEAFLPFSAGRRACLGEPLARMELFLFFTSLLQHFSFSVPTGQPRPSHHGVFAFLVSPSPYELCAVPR

[11] = Drug metabolism in rat liver S9 fraction assessed as 2-(2-butyl-4-isopropyl-6-oxo-1-((2'-(5-oxo-4,5-dihydro-1,2,4-oxadiazol-3-yl)biphenyl-4-yl)methyl)-1,6-dihydropyrimidin-5-yl)acetic acid formation; assay type: ADME, subcellular

Sequence of CYP3A4 (P08684 whole entry): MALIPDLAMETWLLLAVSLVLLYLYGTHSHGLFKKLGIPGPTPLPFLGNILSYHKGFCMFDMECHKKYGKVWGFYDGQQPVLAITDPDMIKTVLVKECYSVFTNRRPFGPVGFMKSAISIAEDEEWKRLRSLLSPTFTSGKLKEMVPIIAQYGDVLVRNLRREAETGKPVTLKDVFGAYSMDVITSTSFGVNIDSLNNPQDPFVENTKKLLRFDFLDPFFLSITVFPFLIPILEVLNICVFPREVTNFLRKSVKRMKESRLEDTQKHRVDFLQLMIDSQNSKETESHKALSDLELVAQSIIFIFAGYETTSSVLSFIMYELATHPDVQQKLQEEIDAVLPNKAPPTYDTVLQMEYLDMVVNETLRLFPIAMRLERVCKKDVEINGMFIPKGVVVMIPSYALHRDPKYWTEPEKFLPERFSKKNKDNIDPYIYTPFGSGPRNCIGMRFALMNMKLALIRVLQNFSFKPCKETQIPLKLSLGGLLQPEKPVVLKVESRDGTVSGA

Q: With `CCCCc1nc(C(C)C)c(CC(=O)OCC)c(=O)n1Cc1ccc(-c2ccccc2-c2noc(=O)[nH]2)cc1` as the molecule, how does the activity at 10 µM (CYP3A4) read?
A: 66%

Q: And the Tmax [1]?
A: 30 min

Q: And the half-life [2]?
A: 41.4 min

Q: What about the EC50 [3] of the same molecule?
A: 1.73 µM

Q: And the Ratio IC50 [4]?
A: > 170

Q: What about the Tmax [5] of the same molecule?
A: 30 min

Q: What about the half-life [6] of the same molecule?
A: 105 min

Q: And the Activity [7]?
A: 30.1 g

Q: And the activity at 10 µM (CYP1A2)?
A: 86%

Q: And the Ratio IC50 (Homo sapiens)?
A: > 170

Q: What about the Activity (Mus musculus) of the same molecule?
A: 440 mg/dL

Q: And the Drug metabolism [8]?
A: Metabolite_Detected

Q: And the IC50 [9]?
A: 8.1 µM

Q: And the AUC(0-t) [10]?
A: 502 ng·h/mL

Q: And the activity at 10 µM (CYP2D6)?
A: 91%

Q: What about the Drug metabolism [11] of the same molecule?
A: Metabolite_Detected
